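Five compound concentrations were applied to cells in 96-well plates for 48 hours; endpoints were derived by simple linear interpolation of the resulting dose-response curve. GI50 marks 50% less growth. TGI marks complete inhibition of growth.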
How the values were obtained:
Test in all cases: growth of human tumour cells (NCI), 48 h
RXF-631 renal = tested on: RXF-631 renal
HS 578T breast = tested on: HS 578T breast
HOP-18 NSCLC = tested on: HOP-18 NSCLC
786-0 renal = tested on: 786-0 renal
SN12K1 renal = tested on: SN12K1 renal

| Structure (SMILES) | TGI (HS 578T breast) [µM] | TGI (HOP-18 NSCLC) [µM] | TGI (SN12K1 renal) [µM] | also measured |
| --- | --- | --- | --- | --- |
| CC1(C)CCCC2(C)[C@@H]1CC[C@]13C[C@](C)(CC[C@@H]21)[C@@H]3CO (some centres not stated) |  |  |  | TGI (RXF-631 renal): > 100 µM |
| COc1ccc2c(c1)C(=O)/C(=C/c1ccccc1)C2 | > 100 |  |  |  |
| CCNc1nc2c(=O)n(C)c(=O)n(C)c2s1 |  | > 100 |  | TGI (786-0 renal): > 100 µM |
| C=C1CC2(C)CCC(OC(=O)C3(C)OC3C)C(C)(OC(C)=O)C2CC1=C(C)C (configuration not stated) | > 100 |  |  |  |
| CC12CCC3C(CCC4(O)C=CCCC34C=O)C1(O)CC(O)C2c1ccc(=O)oc1 (configuration not stated) |  | 0.371 | 0.108 |  |
| COc1cc(CN(C)N2C(=O)c3cccc4cc([N+](=O)[O-])cc(c34)C2=O)cc(OC)c1OC | > 100 |  |  |  |
| O=C1CNC(=O)N1 |  | > 1120 | > 1120 |  |
| O=C(NC/C=C/CO)c1ccccc1 |  | > 100 | > 100 |  |
| Cc1cc(C)c(S(=O)(=O)N(CCCCCCN)OCCCON(CCCCCCN)S(=O)(=O)c2c(C)cc(C)cc2C)c(C)c1 | 4.32 |  |  |  |
| ClCc1nnc2n1-c1ccc(Cl)cc1SC2 |  | 13.2 | 7.86 |  |
| Fc1cc(C2=Nn3c(nnc3-c3cc(F)c(Cl)cc3Cl)SC2)c(Cl)cc1Cl | 55 |  |  | GI50 (HS 578T breast): 21.9 µM |
